Experimental data: patent US5563037A, “Homogeneous method for assay of double-stranded nucleic acids using fluorescent dyes and kit useful therein” (Johnson & Johnson Clinical Diagnostics, Inc., priority 1995, dated 1996)
Several values for one entry are separate records, joined by “and”; a condition that tells them apart may be missing. Identical values can stand only once.

Assays:
Assay type in all cases: biochemical
[1] = tested on: HIV-I DNA; test: Example 1: PCR amplification of HIV-I DNA with YO-PRO-1 dye, fluorescence vs. PCR cycles
Description: The primers used in Examples 1 and 2 had the following sequences which are complementary to the gag region of HIV-I DNA:
HIV-I target DNA was obtained from HUT78/HIV AAV cells obtained from Bernie Poiesz of Syracuse University. Each cell contained about 1 HIV-I copy.
The final PCR reaction mixture contained the primers SEQ ID NO:1 and SEQ ID NO:2 (0.4 μmolar of each), magnesium chloride (10 mmolar), each of dATP, dCTP, dGTP and dTTP (1.5 mmolar of each), tris(hydroxymethyl)aminomethane buffer (10 mmolar, pH 8), ethylenediaminetetraacetic acid (0.1 mmolar), potassium chloride (50 mmolar), DNA polymerase (160 units/ml) and Kodak Ultrapure Human DNA (0.22 μg/μl), glycerol (7.5%). […]
All reagents, except the DNA polymerase, were mixed with the buffer solution noted above. […] The fluorescence of the contents of that tube was then measured following dilution (100 μl of reaction mixture with 3900 μl of dye solution at a concentration of […], giving a final fluid volume of 4 ml in the fluorimeter cuvette) on a commercially available Perkin-Elmer LS-5B spectrofluorimeter (excitation at 491 nm, emission at 509 nm).
The results of these measurements are shown in the FIGURE which is a plot of fluorescence intensity vs. the number of PCR cycles. […]

[2] = tested on: HIV-I DNA; test: Example 2: fluorescence of amplification products
Procedure: The method of this invention was compared to an amplification and detection method outside the scope of this invention, which was carried out using YOYO-1 (1 μmolar final concentration), a tetravalent fluorescent dye, in the buffered solution described above. This dye has the following structure: [drawing 4]
The PCR reaction mixture of Example 1 (except the DNA polymerase) was made to a volume of 5472 μl. The resulting mixture was aliquoted into tubes A, B and C (1824 μl each) representing Samples A, B and C, respectively.
The sample in Tube A was diluted with buffer (220 μl) and subjected to amplification without any fluorescence dye present. The dye was added at the end of amplification for quantitative detection of the resulting products.
In addition to the PCR reagents, the sample in Tube B contained YOYO-1 fluorescent dye (0.1 μmolar) which had been added prior to amplification (220 μl of a 10 μmolar solution).
The sample in Tube C also contained YO-PRO-1 fluorescent dye (0.1 μmolar) which had been added prior to amplification (220 μl of a 10 μmolar solution).
The DNA polymerase (88 μl) and target HIV-I DNA target nucleic acid (220 μl) were then added to each tube, and the contents of the each of the three tubes were used to fill the PCR reagent compartment of eight pouches.
Amplification was carried out using the same procedures as in Example 1. […]
The results of amplification were detected in three ways: (1) color dye scores visually evaluated as 0 (no signal) to 10 (highest signal density), (2) ethidium bromide stained electrophoretic gels, and (3) fluorescence measured on a commercially available Perkin Elmer fluorimeter.
Three replicate assays of each sample (A, B and C) were carried out using each detection means. The average result for each detection means was as follows:
Fluorescent signal was generated using a Perkin-Elmer LS-5B fluorimeter, at the following wavelengths for both dyes:
Each amplification product mixture was diluted 100× into a solution of each dye (1 μmolar final concentration). Background signals were obtained from a mixture of amplification reagent mixture and each dye.

[3] = tested on: HIV-I DNA; test: Example 3: fluorescence after amplification with dye; usefulness / PCR inhibition
Procedure: The primers used in Example 3 had the following sequences which are complementary to the gag region of HIV-I DNA: Amplification experiments like those of Example 2 were also carried out to evaluate the usefulness of several other conventional fluorescent dye stains. In these assays, primers identified above as SEQ ID NO:3 and SEQ ID NO:4 were used, as well as the probe identified as SEQ ID NO:6. […] Fluorescence was determined as described in Example 2 except that all amplified samples were mixed with a solution of YOYO-1 (0.1 μmolar) to provide a common minimum threshold of signal.

C[n+]1c(C=C2C=CN(CCC[N+](C)(C)C)c3ccccc32)oc2ccccc21 [Compound E]
fluorescence after PCR ([1]; after 45 PCR cycles, excitation 491 nm, emission 509 nm): about 20 fluorescent units | effect of dye on PCR ([1]; dye present throughout entire amplification, 1 μmolar): did not adversely affect PCR | Fluorescence, dye added after amplification (Sample A) ([2]; Sample A, dye added after amplification, replicates, 491/509 nm, listed as YO-PRO-1): 3.6 Fluorescent Units and 3.7 Fluorescent Units and 3.4 Fluorescent Units and 3.0 Fluorescent Units | Background fluorescence ([2]; amplification reagent mixture and dye, excitation 491 nm, emission 509 nm): 0.03 Fluorescent Units | effect of dye on amplification / overall signal ([2]; comparison of the two dyes (fluorescence)): lower overall signal | Fluorescence, dye present during amplification (Samples B, C) ([2]; dye added prior to amplification, replicates, 491/509 nm, listed as YO-PRO-1): 3.7 Fluorescent Units and 3.5 Fluorescent Units and 3.6 Fluorescent Units and 3.2 Fluorescent Units and 2.8 Fluorescent Units | signal and use of dye during amplification ([2]; dye included in reagent mixture during amplification): can be included in the reagent mixture during amplification | Fluorescent Signal ([3]; amplified samples mixed with YOYO-1 (0.1 μmolar)): 16 | usefulness of dye / inhibition of PCR ([3]; dye in amplification): useful
